Experimental findings from patent publication US4868303A, “Bis-dioxopiperazine derivatives” (Zenyaku Kogyo Kabushiki Kaisha, priority 1986, dated 1989) are described below.

The test system of data set [1] is P388 lymphocytic leukemia. The data set can be described thus: Growth inhibition of tumor cells of P388 lymphocytic leukemia in vitro. It counts as cell-based, mouse (CDF1). To be noted: Mus musculus, 48 hours at 37° C., read-out: 50% Inhibitory concentration of cell growth (IC50). On the procedure:
(I) Growth Inhibition of Tumor Cells of P388 Lymphocytic Leukemia in Vitro:
Tumor cells were collected aseptically with capillary tube from ascites in CDF1 female mice transplanted intraperitoneally with 1×10^6cells of P388 lymphocytic leukemia 5 days before. Cell suspension was prepared at 5×10^4 cells/0.5 ml in a RPMI1640 medium supplemented with 10% fetal calf serum, kanamycin (0.1 mg/ml) and 2-hydroxyethyldisulfide (0.01 mM). Each test sample was dissolved or suspended in the medium at a concentration of 1×10^-1 -1×10^-5 mM.
A test tube with Molton stopper loosely involving 0.5 ml each of the cell suspension and the sample suspension was kept for 48 hours at 37° C. in an incubator supplied with air containing 5% carbon dioxide. […] The cells harvested therefrom was counted by using of a Coulter Counter and the inhibition of cell growth was calculated by the following formula:
Growth Inhibition (%)=(1-T/C)×100
T: number of cells in the culture containing test sample
C: number of cells in the culture of control

A further data set deals with V79 cells. Put plainly: Inhibitory effect on colony formation of V79 cells in vitro. The note with it: Cricetulus griseus, 96 hours with sample, read-out: 90% inhibitory concentration (IC90). It is filed as cell-based, Chinese hamster. Here is the method: (II) Inhibitory effect on Colony Formation of V79 Cells in Vitro:
V79 cells established from Chinese hamster lung fibroblastoma were cultured routinely on plastic dishes (.phi. 60 mm) in RPMI 1640 medium supplemented with 10% fetal calf serum and kanamycin (0.1 mg/ml). Each confluent culture was then trypsinized by the addition of 1 ml of trypsin-EDTA solution (supplied by the firm GIBCO) for 5 minutes at 37° C. in an incubator supplied with humidified air containing 5% CO2.
Homogeneous suspension of V79 cells thus obtained was diluted to 100, 200 and 400 viable cells/ml with the medium, and 1 ml each of them was transferred to other plastic dishes (.phi. 60 mm) containing 1.85 ml of the medium, and diluted to 100, 200 and 400 viable cells/dish.
Each test sample was dissolved in DMSO at the concentration of 20 mM and diluted with the medium to the final concentration of 2×10^-3 -2×10^-10 mM.
Each test dish was kept for 24 hours at 37° C. in an incubator supplied with humidified air containing 5% CO2, and was further cultured for 96 hours after 150 μl of the sample solution was added thereto.
The cells were gently washed once with Mg- and Ca-free phosphate-buffered saline [PBS(-)] and fixed with 1 ml of 3.5% HCHO-PBS(-) solution for 2 hours, then stained with a crystal violet ethanol solution.
The 90% inhibitory concentration (IC90) was calculated by comparing the number of visible colonies on the sample dish with that on the control dish.

The subject of data set [2] is P388 lymphocytic leukemia. Put plainly: Increase in life span on P388 lymphocytic leukemia tumor-transplanted mouse. It is filed as in vivo, mouse (CDF1). The note with it: P388, ip, 24 h, intraperitoneal, day 1 and 5th day after transplantation, read-out: Rate of increase in life span (ILS). On the procedure:
(III) Increase in Life Span on P388 Lymphocytic Leukemia Tumor-transplantedMouse:
The treated group to which the test sample was administered consisted of seven mice, while the control group consisted of ten mice. Six weeks old male mice (CDF1, 25±2 g of body weight) were employed as host animals.
Tumor cells (1.0×10^6) of P388 lymphocytic leukemia were transplanted intraperitoneally into each mouse. The treatment was effected one day after the transplantation and on 5th day by administering prescribed dose of each test sample intraperitoneally to the mice.
Antitumor activity of the test sample was evaluated by the rate of increase in life span (ILS) which was calculated with the following formula.
T': median survival time of treated mice
C': median survival time of control mice

The next data set is described as follows: Acute toxicity (LD50). To be noted: mouse, in vivo, ip; intraperitoneal, suspended in saline with 1% HPC, observed 14 days. Here is the method: The acute toxicity of the compounds of the present invention was examined by the following test.
The test group to which the compound of the present invention was administered consisted of five mice. Six weeks old male mice (ddY, 30±2 g of body weight) were employed as test animals.

pIC50: −log10 of the molar value.

For the compound `Cc1cccc(C(=O)OCN2C(=O)CN([C@@H](C)[C@@H](C)N3CC(=O)NC(=O)C3)CC2=O)c1` (relative stereo) [Sample 14, erythro-2-[4-(3-toluoyloxmethyl)-3,5-dioxopiperazin-1-yl]-3-(3,5-dioxopiperazine-1-yl)butane], the pIC50 in data set [1] was 7.89. The IC90 in the data set with V79 cells is 0.051 nM. Further, in data set [2] (daily dose 2.3 mg/kg), the ILS at 2.3 mg/kg came out at 199%. Also, in the data set “Acute toxicity (LD50)”, the LD50 at 336 h lay within 6.7 to 10 mg/kg.

Turning to `CC(C)COC(=O)OCN1C(=O)CN(CCN2CC(=O)N(COC(=O)OCC(C)C)C(=O)C2)CC1=O` [Sample A, 1,2-bis(4-isobutoxycarbonyloxymethyl-3,5-dioxopiperazin-1-yl)ethane, reference compound], the pIC50 in data set [1] was 4.80. Also, the IC90 in the data set with V79 cells was 110 nM. In addition, in data set [2] (daily dose 3.0 mg/kg), the ILS at 3 mg/kg worked out at 5%. Moreover, the ILS at 250 mg/kg in data set [2] (daily dose 250 mg/kg (*Adequate dose)) came to 106%.

The term ILS denotes how much longer treated animals lived than controls. The term LD50 denotes the dose expected to kill half of the subjects tested. Read a high LD50 as lower toxicity.
